Data reported in PubChem BioAssay AID179 (DTP/NCI, 2004).
Activity calls are given as the source filed them.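 Rule for the calls: active = compounds giving half or more protection of infected cells from virus-caused growth loss, again on retest; inactive = the rest.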

Test system: CEM cells HIV-1 protection, formazan growth assay
Test: NCI AIDS Antiviral Assay
Settings: for IC50: measured here: growth of uninfected CEM cells
Outline: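 CEM (human) cells, HIV-1 infected vs uninfected, 5-point dosing, formazan growth read-out. Retest threshold 50% protection.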

Compound | outcome | EC50 [µM] | IC50 [µM]
CCCCCCCCCCOC(=O)c1cc[n+](C)cc1 | inactive | – | –
CCOC(=O)c1nc2ccccc2nc1Nc1ccc(C(=O)OC)s1 | – | > 200 | > 200
O=S1(=O)CSc2ccc3ccccc3c2-c2c1ccc1ccccc21 | – | > 27.5 | > 27.5
COc1ccc(-c2cn3c(nc4ccccc43)c(C)n2)cc1 | – | > 200 | > 200
Cc1ccc2c(c1)S(=O)c1cc(C)ccc1S2 | inactive | – | 14.5
COc1ccc2c(c1OC)C(=O)N1C2=Cc2c(cc3c(c2OC)OCO3)CC1N(C)C (configuration not stated) | – | > 200 | 26.9
Cc1cc(O)c(C(C)C)cc1C1(c2cc(C(C)C)c(O)cc2C)OS(=O)(=O)c2ccccc21 | inactive | – | –
CCN(CCO)CCCC(C)Nc1ccnc2cc(Cl)ccc12 (configuration not stated) | – | > 200 | 64.6
CCc1n[nH]c(=O)n1CCO | inactive | – | –
O=P1(c2ccccc2)C(c2ccccc2)=CC=C1c1ccccc1 | – | > 200 | 7.41
CCOC(=O)C(=O)Nc1c(C)cccc1C(C)C | – | > 1000 | > 1000
CC[N+](C)(CC)Cc1ccccc1[N+](=O)[O-] | – | > 200 | 126
CC(CC[C@@]1(C)C(=O)CCC2O[C@]21C)[C@H]1C[C@@H](c2ccoc2)OC1=O (some centres not stated) | – | > 200 | 34.7
NS(=O)(=O)c1ccc(CNC(=O)c2ccccc2SC(=O)CCCCC[n+]2ccccc2)cc1 | – | 2.14 | 39.8
NC(=S)/N=C/c1c(O)c2ccccc2oc1=O | – | > 55 | > 55
CC(=O)O[C@@H]1CCN(C(=O)C(NC(=O)OC(C)(C)C)C(C)C)[C@@H]1C(O)CC(=O)O (some centres not stated) | – | > 200 | > 200
CCC(CCCN)Nc1cc(OC)cc2c(C)ccnc12 (configuration not stated) | – | > 200 | 7.41
CCOC(=O)C1=C(Nc2cccc(OC)c2)OCC1=O | – | > 200 | > 200
COC(=O)/C=C/C1C(C(=O)OC)C2(C(=O)OC)CCC1(C(=O)OC)N2 (configuration not stated) | inactive | – | –
O=C1c2c(O)cc(O)cc2OC(c2ccc(O)cc2)C1C1C(=O)c2c(O)cc(O)cc2OC1c1ccc(O)cc1 (configuration not stated) | – | > 200 | 46.8
CCN(CC)CCOc1cccc(/C=C(\C#N)c2ccccc2)c1 | – | > 100 | 7.76
Nc1ccn(C2OC(C(O)CO)C(O)C2O)c(=O)n1 (configuration not stated) | inactive | – | –

Compound | outcome | EC50 [µM] | IC50 [µM]
Nc1nc(Cl)c(C=O)c(NCC2(CO)CC(CCc3ccccc3)C2)n1 (configuration not stated) | – | > 200 | 3.98
CC(=O)C1=C(O)C(c2ccccc2)c2ccccc21 (configuration not stated) | – | > 389 | 97.7
O=C1c2scnc2-c2nccc3c2c1nc1ccccc13 | – | > 2.51 | 0.457
COc1cc(/C=C2/SC(c3ccccc3)N(c3ccc(NC(C)=O)cc3)C2=O)cc(OC)c1OC (configuration not stated) | – | > 200 | 117
C=CCCCCCCCCC(=O)ON(Cc1ccc(O)c(OC)c1)C(=O)C(F)(F)F | – | > 200 | > 200
NCCCCNOCCCN | – | > 200 | > 200
CC1(C)C(CBr)=[N+]([O-])C(C)(C)N1O | – | > 200 | 3.72
COc1ccc2c(c1)CCc1c(-c3noc4c3CCc3cc(OC)ccc3-4)noc1-2 | – | > 234 | > 234
COc1ccc(/C=c2/sc3n(c2=O)NC2(CCC(C)CC2)NN=3)cc1 (configuration not stated) | inactive | – | –
COCC(/C=N/N=C(N)N)=N\N=C(N)N | – | > 32.4 | > 32.4
CC(C)[Si](OC1=C(C(=O)Nc2ccccc2Cl)CCCCC1)(C(C)C)C(C)C | – | > 200 | 70.8
Cc1cc(-c2ccccc2)c2ccc3c(-c4ccccc4)cc(C)nc3c2n1.Cc1cc(-c2ccccc2)c2ccc3c(-c4ccccc4)cc(C)nc3c2n1.O=C1OC(C(O)C[O-])C(O)=C1O.[Cu+] | – | > 25.1 | 0.708
Cc1c(C)c(C)c2c(c1C)CC2=O | – | > 77.6 | > 77.6
Cc1cn(C2CC(n3ncnn3)C(CO)O2)c(=O)[nH]c1=O (configuration not stated) | inactive | – | –
O=c1cccc2n1C[C@H]1C[C@@H]2CN2CCCC[C@H]12 | – | > 200 | > 200
COc1cc2c(cc1OC)C(=O)/C(=C/c1cc(OC)c(OC)c(OC)c1)C2 | – | > 200 | 162
CC1(C)CC(=O)C(CC2C(=O)c3ccccc3C2=O)C(=O)C1C(=O)C(=O)Nc1cccc2ccc(O)cc12 (configuration not stated) | – | > 51.3 | > 51.3
CC(C)CCC[C@@H](C)[C@H]1CC[C@H]2[C@@H]3CC[C@H]4C[C@@H](CCCC(c5ccc(O)c(C(=O)O)c5)c5ccc(O)c(C(=O)O)c5)CC[C@]4(C)[C@H]3CC[C@]12C | – | 64.6 | > 100
O=C1/C(=C/c2ccccc2Cl)COc2ccccc21 | – | > 19.1 | 11.2
CC1(C)CCc2ccc(OCCC(=O)O)cc2O1 | inactive | – | –
Clc1ccc(/C=N/N=C(N/N=C/c2ccc(Cl)cc2Cl)N/N=C/c2ccc(Cl)cc2Cl)c(Cl)c1 | – | > 100 | > 100
COC1C=COC2(C)Oc3c(C)c(O)c4c(O)c(c(C5SCCS5)c(O)c4c3C2=O)NC(=O)/C(C)=C\C=CC(C)C(O)C(C)C(O)C(C)C(OC(C)=O)C1C (configuration not stated) | – | > 200 | 0.646

Compound | outcome | EC50 [µM] | IC50 [µM]
CC(C)c1ccccc1NC(=O)CCc1n[nH]c(=S)o1 | – | > 324 | > 324
CN(C(=O)C12C3(C(=O)O)C4C5(C(=O)O)C3C1(C(=O)O)C5C42C(=O)O)C(C)(C)C (configuration not stated) | – | > 200 | > 200
CC(C)c1cc2c(O)c(c1)Cc1cc(C(C)C)cc(c1O)Cc1cc(C(C)C)cc(c1O)Cc1cc(C(C)C)cc(c1O)C2 | – | > 6.31 | > 6.31
CN(C)C(=S)/N=C1\SC(=Nc2ccccc2)C(=Nc2ccccc2)N1c1ccc([N+](=O)[O-])cc1 | – | > 200 | 138
Cc1cccc2c(=O)c([Se]c3coc4c(C)cccc4c3=O)coc12 | – | > 33.1 | > 33.1
OCCSCCCSCCO | – | > 95.5 | 72.4
O=C1OC(OC2OC(=O)c3ccccc32)c2ccccc21 (configuration not stated) | – | > 200 | > 200
Cc1cc(S(=O)(=O)Nc2nc(N)nc3nc4ccccc4n23)c(S)cc1Cl | – | 95.5 | 380
CC(C)(C)c1ccc(OCCOc2ccc(C(C)(C)C)cc2N)c(N)c1 | – | > 200 | > 200
CCOC(=O)c1cc(C2(O)CCN(Cc3ccccc3)C2=O)c(-c2cc(C)no2)[nH]1 (configuration not stated) | – | > 200 | 38.9
Cc1cc2c(C(C)C)c(O)c(O)c(C=O)c2c(O)c1-c1c(C)cc2c(C(C)C)c(O)c(O)c(C=Nc3ccccc3SSc3ccccc3N)c2c1O | – | > 200 | 24.5
CCC/C(=N\NC(=S)N1CC2CCC(CC2)C1)c1ccccn1 | – | > 6.76 | 0.148
Cc1cc(C)c(S(=O)(=O)N(CCCCCCN)OCCCN)c(C)c1 | – | > 200 | 30.2
CCOC(=O)NC(NC(C)CC)(C(F)(F)F)C(F)(F)F (configuration not stated) | – | > 200 | > 200
COC(=O)CP(=O)(OCC(F)(F)F)OCC(F)(F)F | – | > 794 | 437
Cc1ccc(S(=O)(=O)O/N=C(/CC/C(=N\OS(=O)(=O)c2ccc(C)cc2)c2ccccc2)c2ccccc2)cc1 | – | > 437 | > 437
Cc1ccc(S(=O)(=O)OC2C(O)C(CO)OC2n2c(Br)c(C(N)=O)c3c(N)ncnc32)cc1 (configuration not stated) | – | > 200 | > 200
CC1(C)OC(=O)C(c2cccs2)C(=O)O1 | – | > 44.7 | > 44.7
CNC1=CC(=O)C2=C(C1=O)[C@H]1CC[C@]3(C)C(=O)CC[C@H]3[C@@H]1CC2 | – | > 200 | 30.2
CC1(C)CC(=O)c2c(-c3ccc(Cl)cc3)c(C#N)c(=S)n(C3OC(CO)C(O)C(O)C3O)c2C1 (configuration not stated) | – | > 200 | 31.6
Nc1ncnc2c1ccn2C/C=C/CO | – | > 200 | > 200
COC(=O)c1ccc2n1C1CC3CC(CC2C3)C1 | – | > 200 | 87.1

Compound | outcome | EC50 [µM] | IC50 [µM]
O=C(CBr)N1CCC2(CC1)SSC1(CCN(C(=O)CBr)CC1)S2 | – | > 200 | 0.575
Cc1ccc(NC(=O)/C(=N/NC(=O)C[N+](C)(C)C)c2nc3ccccc3[nH]c2=O)cc1 | – | > 186 | 120
NC(=O)CNC(=O)c1ccccc1SC(=O)OCCBr | – | 7.08 | > 200
Cc1cc2ccc([N+](=O)[O-])cn2c1 | – | > 200 | 115
O=C1N[C@@H]([C@H](CCCCCO)OC(=O)c2ccccc2)CO1 | – | > 200 | > 200
COc1ccc(NC(=O)C2=C(SC)C(C#N)C(=O)N=C2N)cc1 (configuration not stated) | – | > 200 | 44.7
CC(C)=CCC[C@@H](C)c1c(O)c(O)c(C)c2nccnc12 | – | > 200 | 38
O=c1cn[nH]c2ccc(F)cc12 | – | > 219 | > 219
O=C1OC(c2cccc3ccccc23)c2ccccc21 (configuration not stated) | – | > 501 | 26.3
O=C(NC(CO)Cc1ccc(Oc2cc(CC(CO)NC(=O)OCc3ccccc3)ccc2OC(=O)OCc2ccccc2)cc1)OCc1ccccc1 (configuration not stated) | – | > 200 | 20.9
CCOC(=O)C1CC(C(=O)OCC)(c2ccccc2)CCC1=O (configuration not stated) | – | > 58.9 | 47.9
COc1ccccc1[B-]12OCC[N+]1(CNC(=O)C1=C(O)C3(O)C(=O)C4=C(O)c5c(O)cccc5C(C)(O)C4CC3C(N(C)C)C1=O)CCO2 (configuration not stated) | – | > 27.5 | > 27.5
O=C(O)c1ccccc1S | – | > 200 | > 200
COc1ccc(/C=c2\sc3n(c2=O)C(N)=C(C#N)C(c2ccc(OC)cc2)C=3c2nc3ccccc3[nH]2)cc1 (configuration not stated) | – | > 7.08 | > 7.08
CCOC(=O)c1cc2c(nc1N)C(=O)CCC2 | – | > 200 | 112
OCC1OC(n2cnc3c(I)ncnc32)C(O)C1O (configuration not stated) | inactive | – | –
COC1OC2=CCC3C(=O)NC(=O)C3C2[C@H](OC)C1OC (some centres not stated) | inactive | – | –
NN1C(=O)CSC1=S | – | > 912 | 295
CN(/N=C/C=N/N(C)C1=NCCCCN1)C1=NCCCCN1 | – | > 200 | > 200
CC(=O)Oc1c2c(c(O)c3ccccc13)C(n1cnc3c(ncn3C3OC(CO)C4OC(C)(C)OC43)c1=N)CCC2 (configuration not stated) | – | > 45.7 | 12.9
